The values that follow are results of earlier work, collected in US20140018386A1, “LAQUINIMOD FORMULATIONS WITHOUT ALKALIZING AGENT” (Teva Pharmaceutical Industries, Ltd., priority 2012, published 2014).

The conditions of series [1]: in vivo.
Series [2] has as its system acute experimental autoimmune encephalomyelitis (aEAE) model. The note with it: in vivo.
Series [3] deals with various experimental inflammatory/autoimmune animal models. The note with it: EAE, DSS colitis, NOD mice, EAN, SLE, lupus nephritis, lupus arthritis, Crohn's Disease, Rheumatoid arthritis.

`CCN(C(=O)c1c(O)c2c(Cl)cccc2n(C)c1=O)c1ccccc1` [Laquinimod sodium]: the Oral bioavailability entry in series [1] is on record as “high oral bioavailability”.
For the compound `CCN(C(=O)c1c(O)c2c(Cl)cccc2n(C)c1=O)c1ccccc1` [Laquinimod, N-ethyl-N-phenyl-1,2-dihydro-4-hydroxy-5-chloro-1-methyl-2-oxoquinoline-3-carboxamide], in the series with relapsing MS, the “Development of active MRI lesions” value is listed as “can reduce development of active MRI lesions”. In series [2], the “Effect in the aEAE model” value was “effective”. The Therapeutic effect entry in series [3] is reported as “demonstrated therapeutic effect”.
